Experimental data taken from ChEMBL document CHEMBL1201862, “PubChem BioAssay data set” (2004).
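Exposure lasted 48 hours, with cells grown in 96-well plates and compounds tested at five concentrations. GI50: concentration for 50% inhibition of growth.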 The source made the active and inactive calls. Cut-off read from the data, not from the text of the source: active = GI50 up to about 1.1 µM and inactive = higher.

Key:
Test in all cases: NCI-60 cell line screen, 48 h
ACHN = tested on: ACHN
SNB-19 = tested on: SNB-19
HCT-116 = tested on: HCT-116
SR = tested on: SR
HOP-92 = tested on: HOP-92
HCT-15 = tested on: HCT-15
K562 = tested on: K562
PC-3 = tested on: PC-3
UACC-257 = tested on: UACC-257
MCF7 = tested on: MCF7
SW-620 = tested on: SW-620
A549 = tested on: A549
HT-29 = tested on: HT-29
SN12C = tested on: SN12C
CAKI-1 = tested on: CAKI-1
SF-268 = tested on: SF-268
Malme-3M = tested on: Malme-3M
HL-60 = tested on: HL-60

Row | Structure (SMILES) | GI50 (ACHN) | GI50 (SNB-19) | GI50 (HCT-116) | GI50 (SR) | GI50 (HOP-92) | GI50 (HCT-15) [µM] | GI50 (K562) | GI50 (PC-3) | GI50 (UACC-257) | GI50 (MCF7) | GI50 (SW-620) | GI50 (A549) | GI50 (HT-29) | GI50 (SN12C) | GI50 (CAKI-1) | GI50 (SF-268) | GI50 (Malme-3M) | GI50 (HL-60)
1 | C=CC(C)(C)C(=C)C(=O)N(C)c1ccccc1I | > 100 µM (inactive) | > 100 µM (inactive) | 84.9 µM (inactive) | > 100 µM (inactive) | > 100 µM (inactive) | > 100 | > 100 µM (inactive) | > 100 µM (inactive) | > 100 µM (inactive) | > 100 µM (inactive) | > 100 µM (inactive) | > 100 µM (inactive) | > 100 µM (inactive) | > 100 µM (inactive) | > 100 µM (inactive) | > 100 µM (inactive) | – | –
2 | N#Cc1c(N)n(C2OC(CO)C(O)C2O)c2ncnc(N)c12 (stereo not given) | 0.0312 µM (active) | 0.129 µM (active) | 0.0195 µM (active) | 0.0147 µM (active) | 0.136 µM (active) | 0.0277 | 0.048 µM (active) | 0.0245 µM (active) | 0.091 µM (active) | 0.0168 µM (active) | 0.0228 µM (active) | 0.119 µM (active) | 0.0288 µM (active) | 0.0186 µM (active) | 0.0463 µM (active) | 0.0597 µM (active) | 0.0367 µM (active) | –
3 | O=C(C/N=C(\CN(c1ccccc1)c1ccccc1)Oc1c(Cl)cc(Cl)cc1Cl)N1c2ccccc2Sc2ccccc21 | 39.9 µM (inactive) | > 100 µM (inactive) | 34.9 µM (inactive) | 35.2 µM (inactive) | 21.9 µM (inactive) | 32.9 | > 10 µM (inactive) | 34 µM (inactive) | > 100 µM (inactive) | 32.3 µM (inactive) | 65 µM (inactive) | 54.5 µM (inactive) | 43.3 µM (inactive) | 47.8 µM (inactive) | – | 81.7 µM (inactive) | 31 µM (inactive) | 47.4 µM (inactive)
4 | C=C1C(=O)O[C@H]2C1C[C@@H](OC(C)=O)/C(C)=C/CC[C@@]1(C)O[C@H]21 (stereo not given in full) | 4.33 µM (inactive) | 26 µM (inactive) | 8.75 µM (inactive) | 3.38 µM (inactive) | 16 µM (inactive) | 6.53 | 2.09 µM (inactive) | 15.3 µM (inactive) | 1.34 µM (inactive) | 10.3 µM (inactive) | 4.47 µM (inactive) | 49.7 µM (inactive) | 20.1 µM (inactive) | 14.3 µM (inactive) | 9.18 µM (inactive) | – | 4.36 µM (inactive) | –
5 | CC1OC2OC3C(OCC(O)C3O)OC(=O)[C@]34CCC(C)(C)CC3C3=CCC5[C@@]6(C)C[C@H](O)[C@H](OC7OC(CO)C(O)C(O)C7OC7OC(COC(=O)CC(C)(O)CC(=O)OC1C(O)C2O)C(O)C(O)C7O)[C@@](C)(CO)C6CC[C@@]5(C)[C@]3(C)CC4 (stereo not given in full) | 1.32 µM (inactive) | 1.68 µM (inactive) | 1.63 µM (inactive) | 1.6 µM (inactive) | 1.54 µM (inactive) | 1.53 | – | 1.38 µM (inactive) | 1.43 µM (inactive) | 4.46 µM (inactive) | 1.16 µM (inactive) | 1.32 µM (inactive) | 1.69 µM (inactive) | 1.96 µM (inactive) | 1.45 µM (inactive) | 1.54 µM (inactive) | – | 1.4 µM (inactive)
6 | COC(=O)CNC(=O)/C=C/[C@H](O[Si](C)(C)C(C)(C)C)[C@H](/C=C/C(=O)NCC(=O)OC)O[Si](C)(C)C(C)(C)C | > 25 µM (inactive) | > 25 µM (inactive) | > 25 µM (inactive) | > 25 µM (inactive) | > 25 µM (inactive) | > 25 | > 25 µM (inactive) | > 25 µM (inactive) | > 25 µM (inactive) | > 25 µM (inactive) | > 25 µM (inactive) | > 25 µM (inactive) | > 25 µM (inactive) | > 25 µM (inactive) | > 25 µM (inactive) | > 25 µM (inactive) | > 25 µM (inactive) | –
7 | O=C(/C=C/c1ccccc1)OCC1=C[C@@H](O)[C@@H]2C=CO[C@@H](OC3OC(CO)C(O)C(O)C3O)[C@H]12 (stereo not given in full) | > 100 µM (inactive) | 95.9 µM (inactive) | > 100 µM (inactive) | > 100 µM (inactive) | > 100 µM (inactive) | > 100 | – | > 100 µM (inactive) | > 100 µM (inactive) | > 100 µM (inactive) | > 100 µM (inactive) | > 100 µM (inactive) | > 100 µM (inactive) | > 100 µM (inactive) | > 100 µM (inactive) | > 100 µM (inactive) | > 100 µM (inactive) | –
8 | COc1ccc(C/C=C(\C)CCO)cc1 | > 100 µM (inactive) | > 100 µM (inactive) | > 100 µM (inactive) | > 100 µM (inactive) | > 100 µM (inactive) | > 100 | > 100 µM (inactive) | > 100 µM (inactive) | > 100 µM (inactive) | > 100 µM (inactive) | > 100 µM (inactive) | > 100 µM (inactive) | > 100 µM (inactive) | > 100 µM (inactive) | 38.5 µM (inactive) | > 100 µM (inactive) | – | –
9 | Cc1cc(C)nc(NC(=O)COc2ccc(Cl)cc2)c1 | > 100 µM (inactive) | > 100 µM (inactive) | > 100 µM (inactive) | > 100 µM (inactive) | > 100 µM (inactive) | > 100 | > 100 µM (inactive) | > 100 µM (inactive) | > 100 µM (inactive) | 85.7 µM (inactive) | > 100 µM (inactive) | > 100 µM (inactive) | > 100 µM (inactive) | > 100 µM (inactive) | > 100 µM (inactive) | > 100 µM (inactive) | > 100 µM (inactive) | –
10 | O=C1c2c(ccc3c2CCCC3)CC12Cc1ccc3c(c1C2=O)CCCC3 | > 100 µM (inactive) | > 100 µM (inactive) | 77.4 µM (inactive) | > 100 µM (inactive) | 60.7 µM (inactive) | > 100 | > 100 µM (inactive) | > 100 µM (inactive) | > 100 µM (inactive) | > 100 µM (inactive) | > 100 µM (inactive) | > 100 µM (inactive) | > 100 µM (inactive) | – | – | > 100 µM (inactive) | 28.2 µM (inactive) | > 100 µM (inactive)
11 | Cc1cc2c3c([nH]c2c2ccnc(C)c12)CCCC3 | 4.1 µM (inactive) | – | 1.82 µM (inactive) | 1.93 µM (inactive) | 2.6 µM (inactive) | 1.86 | 2.07 µM (inactive) | 3.78 µM (inactive) | 1.81 µM (inactive) | 1.43 µM (inactive) | 1.91 µM (inactive) | 2.12 µM (inactive) | 2.46 µM (inactive) | 1.77 µM (inactive) | – | 3.75 µM (inactive) | 1.29 µM (inactive) | 1.69 µM (inactive)
12 | COc1cc2c3c(c1OC)C(=O)C(=O)C1=C3N(CCC1)CC2 | 42.1 µM (inactive) | 63.4 µM (inactive) | 18.5 µM (inactive) | 18.5 µM (inactive) | 19.4 µM (inactive) | 27.9 | 5.7 µM (inactive) | 31.5 µM (inactive) | 28.6 µM (inactive) | 14.9 µM (inactive) | 32.4 µM (inactive) | 34.8 µM (inactive) | 24.3 µM (inactive) | 32.4 µM (inactive) | 32.4 µM (inactive) | 13.2 µM (inactive) | – | 19.1 µM (inactive)
13 | CCOP(=O)(OCC)c1cc2cc(O)ccc2oc1=O | > 100 µM (inactive) | > 100 µM (inactive) | > 100 µM (inactive) | > 100 µM (inactive) | > 100 µM (inactive) | > 100 | > 100 µM (inactive) | > 100 µM (inactive) | > 100 µM (inactive) | > 100 µM (inactive) | > 100 µM (inactive) | > 100 µM (inactive) | > 100 µM (inactive) | > 100 µM (inactive) | > 100 µM (inactive) | > 100 µM (inactive) | – | > 100 µM (inactive)
14 | C[n+]1c2ccccc2c(N=[N+]=[N-])c2ccccc21 | 4.13 µM (inactive) | 9.18 µM (inactive) | 4.22 µM (inactive) | 4.13 µM (inactive) | – | 5.66 | 5.82 µM (inactive) | 5.37 µM (inactive) | > 10 µM (inactive) | 6.95 µM (inactive) | 6.28 µM (inactive) | 6.44 µM (inactive) | 3.93 µM (inactive) | 7.03 µM (inactive) | > 10 µM (inactive) | > 10 µM (inactive) | 5.42 µM (inactive) | 9.18 µM (inactive)
15 | CCOc1ccc(NCc2cc(OC)c(OC)c(OC)c2)cc1 | 6.15 µM (inactive) | 2.88 µM (inactive) | 0.533 µM (active) | 0.288 µM (active) | 6.04 µM (inactive) | 0.303 | 0.269 µM (active) | 1.96 µM (inactive) | 19.7 µM (inactive) | 0.455 µM (active) | 0.334 µM (active) | 1.68 µM (inactive) | 0.407 µM (active) | – | – | 3.4 µM (inactive) | – | 0.463 µM (active)
16 | Nc1nc(O)c(Br)c(-c2cccc([N+](=O)[O-])c2)n1 | > 67.9 µM (inactive) | 25.9 µM (inactive) | > 100 µM (inactive) | 64 µM (inactive) | > 76 µM (inactive) | > 100 | > 91.4 µM (inactive) | > 100 µM (inactive) | > 55 µM (inactive) | > 49.2 µM (inactive) | > 100 µM (inactive) | > 46.9 µM (inactive) | > 100 µM (inactive) | > 100 µM (inactive) | 58.5 µM (inactive) | > 82.4 µM (inactive) | – | > 71.1 µM (inactive)
17 | O=C(CC(=O)N1N=C(N(c2ccccc2)c2ccccc2)CC1c1ccccc1)Nc1cccc(Cl)c1 (stereo not given) | > 100 µM (inactive) | > 100 µM (inactive) | > 100 µM (inactive) | > 100 µM (inactive) | > 100 µM (inactive) | > 100 | > 100 µM (inactive) | > 100 µM (inactive) | > 100 µM (inactive) | > 100 µM (inactive) | > 100 µM (inactive) | > 100 µM (inactive) | > 100 µM (inactive) | > 100 µM (inactive) | > 100 µM (inactive) | > 100 µM (inactive) | – | > 100 µM (inactive)
